In ChEMBL document CHEMBL4699514, “Glucose Uptake-Stimulating Galloyl Ester Triterpenoids from Castanopsis sieboldii” (2020):
The source made the active and inactive calls. The calls are words filed in the database; no cut-off is given here.

Tests used:
3T3-L1 = experiment: Induction of glucose uptake in mouse 3T3-L1 adipocytes assessed as [3H]2-deoxy-D-glucose uptake incubated for 1 hr followed by [3H]2-deoxy-D-glucose addition by fluorescence microscopic method; assay type: functional; details: read-out: ED50 (the source's name)
C2C12 = experiment: Activation of AMPK pathway in mouse C2C12 cells assessed as increase in AMPK phosphorylation at 10 to 20 uM after 60 mins by Western blot analysis; assay type: cell-based; details: filed as activator, dose microM 10-20, time 60.0 min

| Compound | EC50 (3T3-L1) [µM] | Activity (C2C12) |
| --- | --- | --- |
| CC1(C)CC[C@]2(C(=O)O)CC[C@]3(C)C(=CC[C@@H]4[C@@]5(C)C[C@@H](O)[C@H](O)C(CO)(CO)[C@@H]5CC[C@]43C)[C@@H]2C1 | 6.89 | – |
| CC1(C)CC[C@]2(C(=O)O[C@@H]3O[C@H](CO)[C@@H](O)[C@H](O)[C@H]3O)CC[C@]3(C)C(=CC[C@@H]4[C@@]5(C)C[C@@H](O)[C@H](OC(=O)c6cc(O)c(O)c(O)c6)[C@](CO)(COC(=O)c6cc(O)c(O)c(O)c6)[C@@H]5CC[C@]43C)[C@@H]2C1 | 12.1 | Active |
| CC1(C)CC[C@]2(C(=O)O[C@@H]3O[C@H](CO)[C@@H](O)[C@H](O)[C@H]3O)CC[C@]3(C)C(=CC[C@@H]4[C@@]5(C)C[C@@H](O)[C@H](OC(=O)c6cc(O)c(O)c(O)c6)C6(COC(=O)c7cc(O)c(O)c(O)c7-c7c(cc(O)c(O)c7O)C(=O)OC6)[C@@H]5CC[C@]43C)[C@@H]2C1 | 10.6 | – |
